# Read-outs that look alike come from different tables or passages of the source.
# Legend:
# Test in all cases: cells
# C13* cells = test system: C13* cells; set-up: species or system 2008, A2780, A2780/CP; growth inhibition of human ovarian cancer cell lines after 72 h treatment, cell counts; settings: Homo sapiens, C13, 72 h
# Description: (§1) The drug concentrations used in the combinations were based on the IC50s. These are reported in Table S3 of the Supplementary Information. The effects of binary combinations were determined with both drug concentrations lower than their IC50s and were characterized in terms of the synergism quotient. […] With 5 μM 5FU alone, cell growth inhibitions were 24.7, 21.2, 28.3, and 27.1% for 2008, C13*, A2780, and A2780/CP, respectively. […] The bars represent the mean of duplicate cell counts on three separate experiments. A quotient > 1 indicates synergism, =1, additivity <1 antagonism. Error bars represent SEM.
# 2008 cells = test system: 2008 cells; set-up: species or system C13*, A2780, A2780/CP; growth inhibition of human ovarian cancer cell lines after 72 h treatment, cell counts; settings: 72 h
# Description: as §1
# A2780/CP cells = test system: A2780/CP cells; set-up: species or system 2008, C13*; growth inhibition of human ovarian cancer cell lines after 72 h treatment, cell counts; settings: A2780C/P, 72 h
# Description: as §1
# A2780 cells = test system: A2780 cells; set-up: species or system 2008, C13*, A2780/CP; growth inhibition of human ovarian cancer cell lines after 72 h treatment, cell counts; settings: Homo sapiens, A2780, 72 h
# Description: as §1
SMILES,IC50 (C13* cells; read-out: RTX (nM) IC50) [nM],IC50 (2008 cells; read-out: RTX (nM) IC50) [nM],IC50 (A2780/CP cells; read-out: RTX (nM) IC50) [nM],IC50 (A2780 cells; read-out: RTX (nM) IC50) [nM],IC50 (C13* cells; read-out: 5-FU (µM) IC50) [nM],IC50 (2008 cells; read-out: 5-FU (µM) IC50) [nM],IC50 (A2780/CP cells; read-out: 5-FU (µM) IC50) [nM],IC50 (A2780 cells; read-out: 5-FU (µM) IC50) [nM]
"Cc1nc(=O)c2cc(CN(C)c3ccc(C(=O)N[C@@H](CCC(=O)O)C(=O)O)s3)ccc2[nH]1 [RTX, N-[(5-{methyl[(2-methyl-4-oxo-1,4-dihydroquinazolin-6-yl)methyl]amino}-2-thienyl)carbonyl]-L-glutamic acid]",26.2 ± 3,9.5 ± 1,31.1 ± 2.9,8.6 ± 1.2,,,,
"O=c1[nH]cc(F)c(=O)[nH]1 [5-FU, 5-fluorouracil]",,,,,12400 ± 800,6300 ± 400,12900 ± 1100,9500 ± 800
